What was measured:
A549 cells [1] = assay: MTS cell proliferation assay upon JQ1 treatment; assay type: cell-based, human; details: 500 nM JQ1; METTL3 depleted A549 cells compared with control A549 cells
Method: FIGS. 7A-7N. METTL3 promotes translation of a large subset of mRNAs. (FIGS. 7A-7E) Global profiling of METTL3 target genes in HeLa. Cytoplasmic extracts from control or METTL3 depleted cells were subjected to sucrose gradient centrifugation. Total RNA, RNA from sub-polysome fractions and RNA from polysome fractions were analyzed by RNA-seq. (FIG. 7A) Peak analysis of polysome profiling. (FIG. 7B) Scatter plot of RNA-Seq data in METTL3 knockdown (shMETTL3) and control (shGFP) HeLa cells. Average read number from two individual METTL3 knockdown is plotted on the y-axis. (FIG. 7C) Scatter plot of RNA-Seq data in shMETTL3 and shGFP HeLa cells. Average read number from two shMETTL3 samples were calculated by the ratio of polysome fraction to the read number in the sub-polysome fraction and plotted on the y-axis. […] (FIG. 7N) Quantification of apoptotic cells, numbers represent ratio between death cells in JQ1 and DMSO treatments. […]
Cell proliferation and apoptosis assays were performed as described previously^8. […] Absorbances at 490 nm were measured using CellTiter 96 AQueous One Solution Cell Proliferation Assay kit (Promega) on day 2, day 4, and day 6 to measure the cellular proliferation. The numbers of apoptotic cells were quantified by flow cytometric assays using Annexin V-FITC Apoptosis Detection Kit (BioVision) five days after 500 nM of JQ1 treatment and cell seeding.

A549 cells [2] = assay: Annexin V/PI apoptosis assay (FACS) upon JQ1 treatment; assay type: cell-based, human; details: 500 nM JQ1, five days; METTL3 depleted A549 cells compared with control A549 cells
Method: FIGS. 7A-7N. METTL3 promotes translation of a large subset of mRNAs. (FIGS. 7A-7E) Global profiling of METTL3 target genes in HeLa. Cytoplasmic extracts from control or METTL3 depleted cells were subjected to sucrose gradient centrifugation. Total RNA, RNA from sub-polysome fractions and RNA from polysome fractions were analyzed by RNA-seq. (FIG. 7A) Peak analysis of polysome profiling. (FIG. 7B) Scatter plot of RNA-Seq data in METTL3 knockdown (shMETTL3) and control (shGFP) HeLa cells. Average read number from two individual METTL3 knockdown is plotted on the y-axis. (FIG. 7C) Scatter plot of RNA-Seq data in shMETTL3 and shGFP HeLa cells. Average read number from two shMETTL3 samples were calculated by the ratio of polysome fraction to the read number in the sub-polysome fraction and plotted on the y-axis. (FIG. 7D) Venn diagram showing the overlap of 2-fold less translated genes and METTL3 PAR-CLIP data. […] (FIG. 7N) Quantification of apoptotic cells, numbers represent ratio between death cells in JQ1 and DMSO treatments. […]
FIGS. 9A-9E. […] (FIG. 9B) Density plot reflects the distribution of changes in percent spliced In (APSI) values and according p-values for alternative splicing events detected by rMATs v3.2.5. […] (FIG. 9E) Annexin V/PI staining of METTL3 knockdown and control A549 cells upon JQ1 treatment that was analyzed by FACS. […]

[3] = biological target: eIF3h (endogenous, in cells) (human) (UniProt O15372); assay: cell-based or functional assay
Sequence of UniProt O15372 (O15372 whole entry): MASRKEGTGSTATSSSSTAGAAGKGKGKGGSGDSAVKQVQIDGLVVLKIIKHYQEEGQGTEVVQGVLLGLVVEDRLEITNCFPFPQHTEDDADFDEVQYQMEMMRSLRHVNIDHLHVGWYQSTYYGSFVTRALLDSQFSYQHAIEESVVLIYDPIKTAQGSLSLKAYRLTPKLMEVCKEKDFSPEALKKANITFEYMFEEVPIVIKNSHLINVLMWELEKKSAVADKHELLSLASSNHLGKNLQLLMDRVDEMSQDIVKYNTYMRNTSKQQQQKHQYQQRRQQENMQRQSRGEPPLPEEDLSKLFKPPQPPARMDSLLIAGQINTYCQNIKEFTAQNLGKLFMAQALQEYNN

translation efficiency of reporter mRNA (tethering assay, FLuc-MS2bs, with control siRNA or eIF3h knockdown) [3] [fold]	Compound	cellular proliferation (OD490), JQ1 versus DMSO (A549 cells [1])	number of apoptotic cells, JQ1 versus DMSO (A549 cells [2])
	Cc1sc2c(c1C)C(c1ccc(Cl)cc1)=N[C@@H](CC(=O)OC(C)(C)C)c1nnc(C)n1-2 [JQ1]	stronger proliferation defect	increased the number of apoptotic cells
2	FLAG-MS2-METTL3 (from UniProt Q86U44 1-580)		

Reference: patent US20230018989A1, “INHIBITING THE RNA […] METTL3 OR ITS INTERACTION WITH EIF3H TO […] ONCOGENE TRANSLATION AND TUMORIGENESIS” (Children's Medical Center Corporation, priority 2019, published 2023)
